According to patent US8853245B2, “Orally bioavailable dabigatran prodrugs for the treatment of diseases” (Dritte Patentportfolio Beteiligungsgesellschaft mbH & Co. KG, priority 2011, dated 2014):
≈ marks a conversion by molar mass, not a printed value. Entries after “also recorded” stand apart in the source; their conditions may differ. Read-outs that look alike come from different tables or passages of the source.

Experiments:
[1] = Stability analysis at various pH values (phosphate buffer, HPLC); assay type: physicochemical; conditions: acidic medium (<pH 6)
Method: A 0.2 mM solution of dabigatran amidoxime succinic acid ester (1) was prepared in 50 mM of a potassium phosphate buffer for the stability analyses. The examination took place at pH values of 2.0, 4.0, 6.3, 7.4 and 9.0. One sample was taken and immediately analyzed by HPLC every 30 min over a period of 360 min.

[2] = Stability (ester hydrolysis) in human plasma; assay type: in vitro ADME; conditions: 0.2 mM, 37° C., up to 150 min, listed as dabigatran amidoxime succinic acid ester (1)
Method: (§1) Further analyses were conducted with human and murine plasma. 900 μl of the plasma was mixed with 100 μl of a 2 mM solution of dabigatran amidoxime succinic acid ester (1). The final concentration of dabigatran amidoxime succinic acid ester (1) was thus 0.2 mM. The samples were incubated at 37° C. in a shaking water bath and samples were taken after 0, 15, 30, 45, 60, 90, 120 and 150 min. For this purpose, 100 μl was drawn in each case and mixed with 100 μl acetonitrile. The samples were shaken, centrifuged for 5 min and the supernatant was measured via HPLC. The results are illustrated in FIGS. 2 and 3.

[3] = Stability (ester hydrolysis) in murine plasma; assay type: in vitro ADME; conditions: 0.2 mM, 37° C., up to 150 min, listed as dabigatran amidoxime succinic acid ester (1)
Method: as §1

[4] = Solubility in phosphate buffer at various pH values; assay type: physicochemical; conditions: shaken 10 min; for solubility at 10 min: aqueous buffer, thermodynamic from solid
Method: An amount of the dabigatran amidoxime succinic acid ester (1) which is insoluble in 150 μl was dissolved in 50 mM of a phosphate buffer (pH 6.3, pH 7.4, respectively pH 9.0) and shaken for 10 min. Solubility was not determined at the 4.0 and 2.0 pH values due to the rapid hydrolysis of the succinyl ester at acidic pH values. 3 N HCl, respectively 10% KOH, was used to adjust the pH value. After the 10 min period, the undissolved portion was removed by centrifugation (13,000 RPM, 10 min) and the samples were immediately measured by HPLC. The evaluation of the solubility ensued via a calibration of dabigatran amidoxime succinic acid ester (1) (Table 1). Dabigatran etexilate and dabigatran amidoxime (2) were examined by comparison so as to be able to better judge the solubility as compared to previously described derivatives. Solubilities were determined analogously to the method described for compound (1).

albumin = albumin (Homo sapiens, UniProt P02768); assay: Plasma protein binding (4% albumin solution, ultrafiltration); assay type: in vitro ADME; conditions: 10, 25 and 50 μM, 15 min at 37° C.
Method: The plasma protein binding was determined at three different concentrations (10, 25, and 50 μM). A 4% albumin solution was used as the protein solutions. 50 μl of a 10 times concentrated substance solution were in each case pipetted to 450 μl of the protein solution. Incubation ensued over 15 min in a shaking water bath at 37° C. Subsequently, the samples were transferred into ultrafiltration units (Vivaspin 500, 10 kDa cut off) and centrifuged for 15 min at 10,000 RPM. The filtrate was analyzed by HPLC. Additionally, a control which was not mixed with protein nor centrifuged was carried out for each concentration. A further control without protein addition which, however, was centrifuged by the filtration unit served to validate the methodology.

[5] = design: species or system rats; conditions: rat, in vivo
Method: Dabigatran was administered intravenously to 20 rats in a concentration of 10 mg/kg. Dabigatran amidoxime succinic acid ester (1), dabigatran amidoxime (2), and dabigatran etexilate were administered to 10 rats each in a concentration of 50 mg/kg as a suspension with Arabic gum (10% m/V) per gavage. 100 mM of potassium phosphate buffer of pH 9.0 was used with the dabigatran amidoxime succinic acid ester (1) in preparing the suspension so as to prevent premature cleavage of the succinyl ester in the acidic environment of the stomach. In addition, 3 rats were given dabigatran at a dosage of 50 mg/kg per gavage in order to determine the oral bioavailability of the active form itself.
After the intravenous administration, plasma samples were taken after 5, 10, 25, 50, 100, 200, and 400 min, respectively 30, 60, 90, 120, 240, 360, and 480 min after oral administration. For this purpose, 300 μl of whole blood was drawn using an insulin syringe and transferred into EDTA-coated CB 300 microvettes (Sarstedt, Nümbrecht). After each withdrawal, the sample was rinsed with 100 μl of 0.9% saline solution respectively with heparin solution (250 I.E./ml) at an interval of 60 min. The blood sample was briefly shaken and placed on ice until centrifugation (4° C.; 14,000 RPM; 10 min). The samples were stored further at −80° C.
The plasma samples were defrosted at room temperature. 5 μl of 1N HCl was prepared in each case and 55 μl of the plasma samples added by pipetting. The samples were subsequently shaken for 45 min in order to cleave the existing glucuronides. The plasma proteins were then precipitated with 55 μl of methanol and shaken for a further 30 min. The samples were centrifuged at 10,000 RPM for 15 min and the supernatant was transferred into HPLC vials. 10 μl was used in each case for the HPCL determinations.
Calibrations and analyses for recovering the dabigatran were performed in a phosphate buffer of pH 7.4, murine plasma respectively, so as to quantitatively evaluate the plasma samples.
The bioavailability of the different dabigatran prodrugs was calculated by means of the PK Solutions 2.0™ program using the plasma concentrations. Furthermore, the plasma half-life t1/2, the time of maximum plasma level tmax, as well as the maximum plasma concentration cmax were calculated.

[6] = Dabigatran in organ samples (liver and kidney) after oral administration; assay type: in vivo; conditions: rats, oral 50 mg/kg, 8 hours after administration
Method: Slaughter ensued by guillotine decapitation 8 hours after the drug administration. The organs were subsequently removed. All organs were cleaned and frozen in 2-methylbutane cooled in dry ice. Liver, kidney, lung, spleen, heart, and brain were removed.
The organs were defrosted at room temperature and weighed. Depending on the respective organ, differing amounts of the tissues were prepared. About 1000 mg were used in case of the liver samples; about 500 mg in case of the kidney samples. Liver and kidney were examined since both organs participate in the activation of the prodrug and increased concentrations of dabigatran can therefore occur in same. Other organs are irrelevant for the bioactivation and were therefore not examined.
The organ samples (liver and kidney) were minced by means of a potter. For this purpose, each of the weighed tissues were minced with 1 ml aqua bidest for 5 min. The potter vessel was subsequently rinsed in each case with 1 ml of aqua bidest. The samples were transferred into reaction vessels and the same volume of acetonitrile was added in order to precipitate proteins. The samples were shaken for 45 min and subsequently centrifuged at 12,000 RPM for 15 min. […]
The solubilizing of the samples ensued with 400 μl of a mixture of methanol/aqua bidest (50/50). […] The concentration of dabigatran was determined from the supernatant by means of HPLC.

[7] = Solubility in phosphate buffer at various pH values; assay type: physicochemical; conditions: pH 2.0, preliminary test runs
[8] = etexilate data from the literature; cited from earlier work

albumin, sequence (P02768 25-609, species assumed): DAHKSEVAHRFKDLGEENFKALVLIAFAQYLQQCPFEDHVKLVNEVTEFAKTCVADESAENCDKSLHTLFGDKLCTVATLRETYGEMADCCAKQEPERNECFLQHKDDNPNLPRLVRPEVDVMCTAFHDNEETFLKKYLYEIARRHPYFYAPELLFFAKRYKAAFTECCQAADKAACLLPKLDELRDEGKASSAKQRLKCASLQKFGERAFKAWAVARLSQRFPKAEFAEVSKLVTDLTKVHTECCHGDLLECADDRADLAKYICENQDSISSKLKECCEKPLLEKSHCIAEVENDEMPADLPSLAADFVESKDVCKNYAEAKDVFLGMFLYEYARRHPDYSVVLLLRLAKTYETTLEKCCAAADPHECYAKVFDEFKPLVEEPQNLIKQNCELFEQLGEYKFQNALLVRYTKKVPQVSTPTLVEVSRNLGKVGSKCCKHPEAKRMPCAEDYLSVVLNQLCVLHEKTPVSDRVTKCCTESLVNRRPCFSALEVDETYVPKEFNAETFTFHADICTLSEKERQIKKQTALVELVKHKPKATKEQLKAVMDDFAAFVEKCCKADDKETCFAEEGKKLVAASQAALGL

CCOC(=O)CCN(C(=O)c1ccc2c(c1)nc(CNc1ccc(/C(N)=N/OC(=O)CCC(=O)O)cc1)n2C)c1ccccn1
stability in acidic medium [1]: rather instable
hydrolysis of the ester bond in plasma [2]: pronounced hydrolysis of the ester bond; also recorded: very marked ester cleavage
hydrolysis of the ester bond in plasma [3]: pronounced hydrolysis of the ester bond; also recorded: very marked ester cleavage
solubility at 10 min ([4]; pH 6.3, 50 mM phosphate buffer): 630 ± 290 µM (≈ 388 µg/mL)
solubility at 10 min ([4]; pH 7.4, 50 mM phosphate buffer): 4620 ± 830 µM (≈ 2840 µg/mL)
solubility at 10 min ([4]; pH 9.0, 50 mM phosphate buffer): 8160 ± 440 µM (≈ 5020 µg/mL)
fraction unbound at 15 min (albumin): ~0.78
plasma protein binding (albumin; listed as dabigatran amidoxime succinic acid ester (1)): 21.8±5.3%
bioavailability [5]: 5.5%±1.7%
Cmax ([5]; po, 50 mg/kg): 2770 ± 550 nM
maximum plasma concentrations (range) ([5]; po, 50 mg/kg): 1.8 to 3.7 µM
period of detectable dabigatran plasma levels ([5]; po, 50 mg/kg): 480 min
prodrug itself in plasma ([5]; po, 50 mg/kg): could not be identified
t1/2 ([5]; po, 50 mg/kg): 69.3 ± 30.4^+ min
time at which maximum plasma concentrations were reached (range) ([5]; po, 50 mg/kg): 30 to 60 min
tmax ([5]; po, 50 mg/kg): 48.0 ± 15.5^+ min
dabigatran concentration in liver samples compared to other prodrugs [6]: clearly lower
dabigatran detected in liver and kidney [6]: small amounts
solubility in acidic medium [7]: good solubility

Cn1c(CNc2ccc(C(N)=NO)cc2)nc2cc(C(=O)N(CCC(=O)O)c3ccccn3)ccc21 [Dabigatran amidoxime (2)]
solubility ([4]; pH 6.3, 50 mM phosphate buffer): 145 ± 16 µM (≈ 70.7 µg/mL)
solubility ([4]; pH 7.4, 50 mM phosphate buffer): 119 ± 5 µM (≈ 58 µg/mL)
solubility ([4]; pH 9.0, 50 mM phosphate buffer): 111 ± 8 µM (≈ 54.1 µg/mL)
plasma protein binding (albumin): 31.2±1.3%
bioavailability [5]: 4.1 ± 1.4 %
Cmax ([5]; po, 50 mg/kg): 2760 ± 1060 nM
maximum plasma concentrations (range) ([5]; po, 50 mg/kg): 1.7 to 5.5 µM
period of detectable dabigatran plasma levels ([5]; po, 50 mg/kg): 480 min
prodrug itself in plasma ([5]; po, 50 mg/kg): could not be identified
t1/2 ([5]; po, 50 mg/kg): 108.1 ± 56.2^+ min
time at which maximum plasma concentrations were reached (range) ([5]; po, 50 mg/kg): 30 to 60 min
tmax ([5]; po, 50 mg/kg): 36.0 ± 12.6 min

CCCCCCOC(=O)NC(=N)c1ccc(NCc2nc3cc(C(=O)N(CCC(=O)OCC)c4ccccn4)ccc3n2C)cc1 [Dabigatran etexilate]
solubility at 10 min ([4]; pH 6.3, 50 mM phosphate buffer): 3.6 ± 2 µM (≈ 2.26 µg/mL)
solubility at 10 min ([4]; pH 7.4, 50 mM phosphate buffer): 0.6 ± 0.4 µM (≈ 0.377 µg/mL)
solubility at 10 min ([4]; pH 9.0, 50 mM phosphate buffer): 0.4 ± 0.1 µM (≈ 0.251 µg/mL)
bioavailability [5]: 7.2%±2.0%
Cmax ([5]; po, 50 mg/kg): 3480 ± 640 nM
maximum plasma concentrations (range) ([5]; po, 50 mg/kg): 2.3 to 4.5 µM
period of detectable dabigatran plasma levels ([5]; po, 50 mg/kg): 480 min
prodrug itself in plasma ([5]; po, 50 mg/kg): could not be identified
t1/2 ([5]; po, 50 mg/kg): 87.7 ± 27.5 min
time at which maximum plasma concentrations were reached (range) ([5]; po, 50 mg/kg): 30 to 90 min
tmax ([5]; po, 50 mg/kg): 57.0 ± 22.1 min
bioavailability described in the literature [8]: 5-8%

[H]/N=C(/N)c1ccc(NCc2nc3cc(C(=O)N(CCC(=O)O)c4ccccn4)ccc3n2C)cc1 [Dabigatran]
period of detectable plasma levels ([5]; iv, 10 mg/kg): 400 min
Cmax ([5]; po, 50 mg/kg): 240 ± 130 nM
bioavailability ([5]; po, 50 mg/kg): 0.3 ± 0.2 %
t1/2 ([5]; po, 50 mg/kg): 58.0 ± 31.1^+ min
tmax ([5]; po, 50 mg/kg): 105.0 ± 21.2 min
